Laboratory results reported in patent US20040062842A1, “Green soybeans whose color is prevented from discoloring” (priority 2002, published 2004).

Columns and labels:
[1] = Suppression of discoloration by immersing green soybeans in aqueous solutions of anti-oxidation materials; parameters: species or system green soybean; details: green soybeans immersed in aqueous solutions, permeation into tissues under depressurization
Excerpt: A test for suppressing discoloration of a green color was made by immersing green soybeans in aqueous solutions of various anti-oxidation materials, such as ascorbic acid, tocopherol and carotenoids, thus causing the anti-oxidation materials to permeate into tissues under depressurization and to capture radicals inducing decomposition of chlorophyll.

[2] = Suppression of discoloration of a chlorophyll/ethanol solution preserved under illumination of light; details: 10° C., 17 hours, 1600 Lux; for Suppression Effect (%): 0.01 M anti-oxidation material in chlorophyll/ethanol solution (25 μg/ml), absorbance at 640 nm, relative to control sample; for effect of retaining a green color against light: addition to chlorophyll/ethanol solution
Description: Next, to check the effect resulting when anti-oxidation materials permeated into tissues, particularly chloroplasts, of a living body, a test for suppressing discoloration of a green color was made by preparing a chlorophyll/ethanol solution including chlorophyll, dissolving each of various anti-oxidation materials in the solution, and preserving it under illumination of light. More specifically, 4 ml of the chlorophyll/ethanol solution was prepared by adding 25 μg of chlorophyll in 1 ml of ethanol, and each anti-oxidation material, i.e., 0.01 M of ascorbic acid (aqueous solution), 0.01 M of α-tochopherol (ethanol solution), and 0.01 M of β-carotene (ethanol solution), was dissolved in the chlorophyll/ethanol solution. After enclosing each test sample, the test sample was preserved at 10° C. for 17 hours under 1600 Lux. Then, a change in absorbance of the test sample at 640 nm between before and after the preservation was measured. A higher value of the absorbance at 640 nm means a larger amount of chlorophyll. In Table 1, “control sample” represents a sample in which water was added, and “suppression effect” represents a chlorophyll reduction rate of each test sample calculated on condition that a chlorophyll reduction rate of the control sample after the preservation under illumination of light was assumed to be 100.

| Compound | effect of suppressing discoloration of a green color [1] | Suppression Effect (%) [2] | effect of retaining a green color against light [2] |
| --- | --- | --- | --- |
| O=C1O[C@H]([C@@H](O)CO)C(O)=C1O [Ascorbic acid aqueous solution, ascorbic acid] | hardly confirmed | 0% | – |
| Cc1c(C)c2c(c(C)c1O)CCC(C)(CCCC(C)CCCC(C)CCCC(C)C)O2 (stereo not drawn) [α-Tochopherol/ethanol solution, α-tochopherol] | – | 52.4% | apparent effect of retaining a green color against light was confirmed |
| CC1=C(/C=C/C(C)=C/C=C/C(C)=C/C=C/C=C(C)/C=C/C=C(C)/C=C/C2=C(C)CCCC2(C)C)C(C)(C)CCC1 [β-Carotene/ethanol solution, β-carotene] | – | 56.1% | apparent effect of retaining a green color against light was confirmed |
| tocopherol | hardly confirmed | – | – |
